In patent US8703957B2 (Janssen Pharmaceutica NV, priority 2001, dated 2014):

How the values were obtained:
[1] = biological target: T1, human neutrophil cathepsin G (Homo sapiens, UniProt P08311); assay: Enzyme-catalyzed hydrolysis assay, cathepsin G (chromogenic substrate Suc-Ala-Ala-Pro-Phe-pNa); format: biochemical; conditions: 70 nM enzyme, 5 mM substrate, pH 7.4, 37° C., 30 minutes; read-out: IC50 (μM) CatG
T1 construct: human neutrophil cathepsin G (Athens Research and Technology); purchased Athens Research and Technology; host or cells: human neutrophils (from the enzyme's name)
T1 sequence (P08311 21-243 limits assumed): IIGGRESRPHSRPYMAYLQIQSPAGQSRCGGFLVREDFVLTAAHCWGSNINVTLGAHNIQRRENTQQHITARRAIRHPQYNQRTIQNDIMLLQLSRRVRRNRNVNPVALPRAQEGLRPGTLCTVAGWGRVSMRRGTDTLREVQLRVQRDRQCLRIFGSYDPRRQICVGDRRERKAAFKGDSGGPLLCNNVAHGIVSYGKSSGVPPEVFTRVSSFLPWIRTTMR
Method: (§1) Enzyme-catalyzed hydrolysis rates were measured spectrophotometrically using human neutrophil cathepsin G (Athens Research and Technology) or human skin chymase (Cortex Biochem), a chromogenic substrate (Suc-Ala-Ala-Pro-Phe-pNa) (Bachem) in aqueous buffer (100 mM Hepes, 500 mM NaCl, pH 7.4 for catG; 450 mM Tris, 1800 mM NaCl, pH 8.0 for chymase), and a microplate reader (Molecular Devices). […] Percent inhibition was calculated by comparing the initial reaction slopes of the samples without inhibitor to those with inhibitor. IC50 values were determined using a four parameter fit logistics model. The term “NT” indicates a compound that was not tested.

human skin chymase = biological target: T2, human skin chymase (Homo sapiens, UniProt P23946); assay: Enzyme-catalyzed hydrolysis assay, chymase (chromogenic substrate Suc-Ala-Ala-Pro-Phe-pNa); format: biochemical; conditions: 10 nM enzyme, 0.7 mM substrate, pH 8.0, 37° C., 30 minutes
T2 construct: human skin chymase (Cortex Biochem); purchased Cortex Biochem; host or cells: human skin (from the enzyme's name)
T2 sequence (P23946 22-247): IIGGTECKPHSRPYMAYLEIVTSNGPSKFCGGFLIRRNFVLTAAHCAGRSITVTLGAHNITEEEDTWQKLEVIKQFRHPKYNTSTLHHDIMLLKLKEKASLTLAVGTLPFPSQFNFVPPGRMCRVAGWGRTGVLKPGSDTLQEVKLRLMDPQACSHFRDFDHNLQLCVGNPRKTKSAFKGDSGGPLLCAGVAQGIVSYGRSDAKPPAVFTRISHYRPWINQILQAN
Method: as §1

Row | IC50 [1] | IC50 (human skin chymase) | Molecule
1 | 0.4 ± 0.09 µM | 0.036 ± 0.011 µM | CN(CC12CC3CC(CC(C3)C1)C2)C(=O)c1cc2ccccc2cc1C(=O)C(c1cccc2ccccc12)P(=O)(O)O (stereo not drawn) [Compound 28, [2-[1-[[methyl(tricyclo[3.3.1^3,7]dec-1-ylmethyl)amino]carbonyl]-2-naphthalenyl]-1-(1-naphthalenyl)-2-oxoethyl]-phosphonic acid]
2 | 0.15 ± 0.03 µM | 0.0082 ± 0.0028 µM | CN(C(=O)c1cc2ccccc2cc1C(=O)C(c1cccc2ccccc12)P(=O)(O)O)C1CC=C(c2ccccc2)CC1 (stereo not drawn) [Compound 29, [2-[3-[[methyl(4-phenyl-3-cyclohexen-1-yl)amino]-carbonyl]-2-naphthalenyl]-1-(1-naphthalenyl)-2-oxoethyl]-phosphonic acid]
3 | 0.064 ± 0.008 µM | 0.004 µM | CN(C)c1ccc(C=CC(=O)N2CCC(N(C)C(=O)c3cc4ccccc4cc3C(=O)C(c3cccc4ccccc34)P(=O)(O)O)CC2)cc1 (stereo not drawn) [Compound 13, [2-3-[[[1-[(2E)-3-[4-(dimethylamino)phenyl]-1-oxo-2-propenyl]-4-piperidinyl]methylamino]carbonyl]-2-naphthalenyl]-1-(1-naphthalenyl)-2-oxoethyl]-phosphonic acid]
4 | 0.23 ± 0.03 µM | 0.01 ± 0.001 µM | COc1cccc(C2CCN(C(=O)c3cc4ccccc4cc3C(=O)C(c3cccc4ccccc34)P(=O)(O)O)CC2)c1 (stereo not drawn) [Compound 14, [2-[3-[[4-(3-methoxyphenyl)-1-piperidinyl]carbonyl]-2-naphthalenyl]-1-(1-naphthalenyl)-2-oxoethyl]-phosphonic acid]
5 | 0.067 ± 0.014 µM | 0.0035 ± 0.0015 µM | CN(C(=O)c1cc2ccccc2cc1C(=O)C(c1cccc2ccccc12)P(=O)(O)O)C1CCN(C(=O)/C=C/c2ccccc2)CC1 (stereo not drawn) [Compound 6, [2-[3-[[methyl[1-[(2E)-1-oxo-3-phenyl-2-propenyl]-4-piperidinyl]amino]carbonyl]-2-naphthalenyl]-1-(1-naphthalenyl)-2-oxoethyl]-phosphonic acid]
6 | 0.21 ± 0.05 µM | 0.008 ± 0.022 µM | O=C(c1cc2ccccc2cc1C(=O)N1CCC(c2ccccc2)CC1)C(c1cccc2ccccc12)P(=O)(O)O (stereo not drawn) [Compound 7, [1-(1-naphthalenyl)-2-oxo-2-[3-[(4-phenyl-1-piperidinyl)carbonyl]-2-naphthalenyl]ethyl]-phosphonic acid]
7 | 0.053 ± 0.016 µM | 0.014 ± 0.006 µM | CN(C(=O)c1cc2ccccc2cc1C(=O)C(c1cccc2ccccc12)P(=O)(O)O)C1CCN(C(=O)/C=C/c2ccc(C(F)(F)F)cc2)CC1 (stereo not drawn) [Compound 10, [2[3-[[methyl[1-[(2E)-1-oxo-3-[4-(trifluoromethyl)-phenyl]-2-propenyl]-4-piperidinyl]amino]carbonyl]-2-naphthalenyl]-1-(1-naphthalenyl)-2-oxoethyl]-phosphonic acid]
8 | 0.74 ± 0.29 µM |  | O=C(c1cc2ccccc2cc1C(=O)N1CCN(C(=O)Cc2ccc3ccccc3c2)CC1)C(c1cccc2ccccc12)P(=O)(O)O (stereo not drawn) [Compound 37]
9 | 0.86 ± 0.03 µM | 0.31 µM | CN(C(=O)c1cc2ccccc2cc1C(=O)C(c1cccc2ccccc12)P(C)(=O)O)C1CCN(C(=O)c2ccc3ccccc3c2)CC1 (stereo not drawn) [Compound 32, methyl[2-[3-[[methyl[1-(2-naphthalenylcarbonyl)-4-piperidinyl]amino]carbonyl]-2-naphthalenyl]-1-(1-naphthalenyl)-2-oxoethyl]-phosphinic acid]
10 | 0.95 ± 0.21 µM |  | O=C(c1cc2ccccc2cc1C(=O)N1CCN(C(=O)Nc2ccc3ccccc3c2)CC1)C(c1cccc2ccccc12)P(=O)(O)O (stereo not drawn) [Compound 43]
11 | 0.121 ± 0.007 µM | 0.001 µM | CN(C(=O)c1cc2ccccc2cc1C(=O)C(c1csc2ccc(Cl)cc12)P(=O)(O)O)C1CCN(C(=O)c2ccc3ccccc3c2)CC1 (stereo not drawn) [Compound 33, [1-(5-chlorobenzo[b]thien-3-yl)-2-[3-[[methyl[1-(2-naphthalenylcarbonyl)-4-piperidinyl]amino]carbonyl]-2-naphthalenyl]-2-oxoethyl]-phosphonic acid]
12 | 0.028 ± 0.006 µM | 0.001 µM | CN(C(=O)c1cc2ccccc2cc1C(=O)C(c1cccc2ccccc12)P(=O)(O)O)C1CCN(C(=O)CCc2ccc(C(F)(F)F)cc2)CC1 (stereo not drawn) [Compound 18, [2-[3-[[methyl[1-[1-oxo-3-[4-(trifluoromethyl)phenyl]-propyl]-4-piperidinyl]amino]carbonyl]-2-naphthalenyl]-1-(1-naphthalenyl)-2-oxoethyl]-phosphonic acid]
13 | 0.053 ± 0.015 µM | 0.011 ± 0.003 µM | Cc1ccc(/C=C/C(=O)N2CCC(N(C)C(=O)c3cc4ccccc4cc3C(=O)C(c3cccc4ccccc34)P(=O)(O)O)CC2)cc1 (stereo not drawn) [Compound 9, [2-[3-[[methyl[1-[(2E)-3-(4-methylphenyl)-1-oxo-2-propenyl]-4-piperidinyl]amino]carbonyl]-2-naphthalenyl]-1-(1-naphthalenyl)-2-oxoethyl]-phosphonic acid]
14 | 0.13 ± 0.01 µM | 0.0074 ± 0.0022 µM | O=C(c1cc2ccccc2cc1C(=O)N1CCC2(CC1)C(=O)NCN2c1ccccc1)C(c1cccc2ccccc12)P(=O)(O)O (stereo not drawn) [Compound 8, [1-(1-naphthalenyl)-2-oxo-2-[3-[(4-oxo-1-phenyl-1,3,8-triazaspiro[4.5]dec-8-yl)carbonyl]-2-naphthalenyl]ethyl]-phosphonic acid]
15 | 0.56 ± 0.18 µM |  | O=C(c1cc2ccccc2cc1C(=O)N1CCN(S(=O)(=O)c2ccc3ccccc3c2)CC1)C(c1cccc2ccccc12)P(=O)(O)O (stereo not drawn) [Compound 35]
16 |  | 0.017 ± 0.005 µM | CN(C(=O)c1cc2ccccc2cc1C(=O)C(c1cccc2ccccc12)P(=O)(O)O)C1CCN(C(=O)c2ccccc2)CC1 (stereo not drawn) [Compound 15]
17 | 0.59 ± 0.04 µM | 0.0158 ± 0.0008 µM | O=C(NC1CCN(C(=O)c2ccc3ccccc3c2)CC1)c1cc2ccccc2cc1C(=O)C(c1cccc2ccccc12)P(=O)(O)O (stereo not drawn) [Compound 30, [1-(1-naphthalenyl)-2-[3-[[[1-(2-naphthalenylcarbonyl)-4-piperidinyl]amino]carbonyl]-2-naphthalenyl]-2-oxoethyl]-phosphonic acid]
18 | 0.31 µM |  | O=C(NCc1ccc(S(=O)(=O)N2CCN(C(=O)c3cc4ccccc4cc3C(=O)C(c3cccc4ccccc34)P(=O)(O)O)CC2)s1)c1ccccc1 (stereo not drawn) [Compound 41]
19 | 0.068 ± 0.019 µM | 0.072 ± 0.008 µM | [2-[3-[[[1-[(6-methoxy-2-naphthalenyl)carbonyl]-3-pyrrolidinyl]methylamino]carbonyl]-2-naphthalenyl]-1-(1-naphthalenyl)-2-oxoethyl]-phosphonic acid [Compound 3]
20 | 0.78 ± 0.22 µM |  | O=C(c1cc2ccccc2cc1C(=O)N1CCN(C(=O)c2ccc3ccccc3c2)CC1)C(c1cccc2ccccc12)P(=O)(O)O (stereo not drawn) [Compound 38]
21 | 4.9 ± 2.8 µM | 0.032 µM | CN(C(=O)c1cc2ccccc2cc1C(=O)C(c1ccccc1)P(=O)(O)O)C1CCN(C(=O)c2ccc3ccccc3c2)CC1 (stereo not drawn) [Compound 11, [2-[3-[[methyl[1-(2-naphthalenylcarbonyl)-4-piperidinyl]amino]carbonyl]-2-naphthalenyl]-2-oxo-1-phenylethyl]-phosphonic acid]
22 | 0.14 ± 0.03 µM |  | O=C(c1cc2ccccc2cc1C(=O)N1CCN(S(=O)(=O)c2c(Cl)nc3sccn23)CC1)C(c1cccc2ccccc12)P(=O)(O)O (stereo not drawn) [Compound 42]
23 | 0.17 ± 0.05 µM |  | COc1ccc(N2CCN(C(=O)c3cc4ccccc4cc3C(=O)C(c3cccc4ccccc34)P(=O)(O)O)CC2)cc1 (stereo not drawn) [Compound 40]

Row | Molecule | IC50 [1] | IC50 (human skin chymase)
24 | [2-[3-[[[4-(1,1-dimethylethyl)cyclohexyl]methylamino]carbonyl]-2-naphthalenyl]-1-(1-naphthalenyl)-2-oxoethyl]-phosphonic acid [Compound 22] | 0.14 ± 0.04 µM | 0.009 ± 0.023 µM
25 | [2-[3-[[[1-[(6-hydroxy-2-naphthalenyl)carbonyl]-4-piperidinyl]methylamino]carbonyl]-2-naphthalenyl]-1-(1-naphthalenyl)-2-oxoethyl]-phosphonic acid [Compound 24] | 0.078 ± 0.015 µM | 0.0035 ± 0.0013 µM
26 | [2-[3-[(cyclohexylmethylamino)carbonyl]-2-naphthalenyl]-1-(1-naphthalenyl)-2-oxoethyl]-phosphonic acid [Compound 17] | 0.098 ± 0.026 µM | 0.0072 ± 0.0015 µM
27 | COP(=O)(O)C(C(=O)c1cc2ccccc2cc1C(=O)N(C)C1CCN(C(=O)c2ccc3ccccc3c2)CC1)c1cccc2ccccc12 (stereo not drawn) [Compound 23, [2[3-[[methyl[1-(2-naphthalenylcarbonyl)-4-piperidinyl]amino]carbonyl]-2-naphthalenyl]-1-(1-naphthalenyl)-2-oxoethyl]-phosphonic acid methyl ester] | 0.67 µM | 0.416 µM
28 | CN(C(=O)c1cc2ccccc2cc1C(=O)C(c1cccc2ccccc12)P(=O)(O)O)C1CCN(C(=O)c2ccc3cc(Br)ccc3c2)CC1 (stereo not drawn) [Compound 4] | 0.09 ± 0.02 µM | 0.0039 ± 0.0001 µM
